IC50 data for 30 compounds are collected here from US8389557B2, “Triazole derivatives useful as Axl inhibitors” (Rigel Pharmaceuticals, Inc., priority 2005, dated 2013).

SMILES strings stand for the structures.

This test deals with T1, Axl (Homo sapiens, UniProt P30530).
T1 construct: endogenous in cells; host or cells: HeLa cells
T1 sequence (P30530 26-894): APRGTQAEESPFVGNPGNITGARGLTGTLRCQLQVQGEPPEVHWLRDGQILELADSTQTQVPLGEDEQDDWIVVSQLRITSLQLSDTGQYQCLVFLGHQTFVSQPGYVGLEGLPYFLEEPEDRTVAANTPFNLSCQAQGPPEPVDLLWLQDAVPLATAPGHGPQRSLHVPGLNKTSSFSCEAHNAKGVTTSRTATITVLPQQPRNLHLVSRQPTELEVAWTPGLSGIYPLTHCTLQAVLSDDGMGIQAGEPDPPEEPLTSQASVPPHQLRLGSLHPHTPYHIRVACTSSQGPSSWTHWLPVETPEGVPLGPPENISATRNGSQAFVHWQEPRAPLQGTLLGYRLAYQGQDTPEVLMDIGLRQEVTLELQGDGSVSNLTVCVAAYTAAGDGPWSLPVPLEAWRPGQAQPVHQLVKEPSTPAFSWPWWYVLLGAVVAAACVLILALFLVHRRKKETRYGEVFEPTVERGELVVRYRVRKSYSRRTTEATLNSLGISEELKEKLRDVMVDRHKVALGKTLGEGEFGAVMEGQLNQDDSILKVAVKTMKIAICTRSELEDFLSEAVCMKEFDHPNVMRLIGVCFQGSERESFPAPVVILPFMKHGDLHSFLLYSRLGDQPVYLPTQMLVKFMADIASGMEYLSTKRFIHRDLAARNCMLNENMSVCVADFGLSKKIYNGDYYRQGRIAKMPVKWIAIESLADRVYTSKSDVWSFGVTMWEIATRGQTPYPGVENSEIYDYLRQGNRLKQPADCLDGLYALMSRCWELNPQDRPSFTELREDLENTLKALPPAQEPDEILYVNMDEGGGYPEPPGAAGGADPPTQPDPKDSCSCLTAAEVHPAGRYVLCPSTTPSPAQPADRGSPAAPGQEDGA
The test is described as follows: Phospho-Akt in-cell Western assay (inhibition of Axl activity). It counts as cell-based. In outline:
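HeLa cells on poly-L-lysine, starved 24 h in 0.5% FCS DMEM with Axl/Fc 500 ng/mL, pre-treated with compound 1 h at 37° C. Axl stimulated 5 min by anti-Axl/anti-mouse antibody cross-linking. Fixed cells probed with anti-phospho-Akt and HRP secondary, chemiluminescence read.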

The mark [1] stands for this setting: Table 8, Hela cells, Axl antibody cross-linking stimulation, phospho-Akt chemiluminescence.
[2] abbreviates: inhibition of Axl activity, Table 1.
The mark [3] stands for this setting: Table 3, Hela cells, Axl antibody cross-linking stimulation, phospho-Akt chemiluminescence.
Where [4] appears, read: inhibition of Axl activity, phospho-Akt in-cell Western assay, Table 1.
The mark [5] stands for this setting: Table 2, Hela cells, Axl antibody cross-linking stimulation, phospho-Akt chemiluminescence.
The mark [6] stands for this setting: Table 7, Hela cells, Axl antibody cross-linking stimulation, phospho-Akt chemiluminescence.
Setting [7] is: Table 5, Hela cells, Axl antibody cross-linking stimulation, phospho-Akt chemiluminescence.

`Nc1nc(Nc2ccc(OCCN3CCCCC3)cc2)n(C(=O)NC2CCCC2)n1` [compound 190, 3-amino-N-cyclopentyl-5-[4-[2-(piperidin-1-yl)ethoxy]phenylamino]-1H-1,2,4-triazole-1-carboxamide] displayed an IC50 under setting [1] of over 20000 nM.
As to `COc1cccc(C(=O)n2nc(Nc3ccc(OCCN4CCCCC4)cc3)nc2N)c1` [compound 80, 5-amino-1-(3-(methoxy)phenyl)carbonyl-3-[4-[2-(piperidin-1-yl)ethoxy]phenylamino]-1H-1,2,4-triazole], the IC50 under setting [2] is under 1000 nM.
Under setting [2], `Nc1nc(Nc2ccc3c(c2)OCCO3)nn1C(=O)c1ccc(OCCN2CCCCC2)cc1` [compound 226] returned an IC50 of 1000 to 10000 nM.
`Nc1nc(Nc2ccc3c(c2)OCCO3)nn1C(=O)c1cccc(O)c1` [compound 166, 5-amino-3-(1,4-benzodioxan-6-yl)-amino-1-(3-(hydroxy)phenyl)carbonyl-1H-1,2,4-triazole] displayed an IC50 under setting [2] of 1000 to 10000 nM.
Take `CN(C)CCOc1ccc(Nc2nc(N)n(C(=O)c3ccc(OC(C)(C)C)cc3)n2)cc1` [compound 83, 5-amino-3-[4-[2-(dimethylamino)ethoxy]phenylamino]-1-(4-(tert-butoxy)phenyl)carbonyl-1H-1,2,4-triazole]: the IC50 under setting [2] is under 1000 nM.
Turning to `Nc1nc(Nc2ccc(OCCN3CCCC3)cc2)nn1C(=O)c1csnn1` [compound 312, 5-amino-1-(1,2,3-thiadiazol-4-yl)carbonyl-3-[4-[2-(pyrrolidin-1-yl)ethoxy]phenylamino]-1H-1,2,4-triazole], under setting [3], the IC50 was over 20000 nM.
On to `CN(C)c1ccc(C(=O)n2nc(Nc3ccc(N4CCCC4)cc3)nc2N)cc1` [compound 299, 5-amino-1-(4-(dimethylamino)phenyl)carbonyl-3-[4-(pyrrolidin-1-yl)phenylamino]-1H-1,2,4-triazole], for which the IC50 under setting [4] fell in the range of 1000 to 10000 nM.
Compound `CC(C)c1ccc(C(=O)n2nc(Nc3ccc(OCCN4CCCCC4)cc3)nc2N)cc1` [compound 51, 5-amino-1-(4-(iso-propyl)phenyl)carbonyl-3-[4-[2-(piperidin-1-yl)ethoxy]phenylamino]-1H-1,2,4-triazole] registered an IC50 under setting [2] of under 1000 nM.
`CC(C)(C)Oc1ccc(C(=O)n2nc(N)nc2Nc2ccc(N3CCCC3)cc2)cc1` [compound 292, 3-amino-1-(4-(tert-butoxy)phenyl)carbonyl-5-(4-(pyrrolidin-1-yl)phenylamino]-1H-1,2,4-triazole]: the IC50 under setting [5] is over 20000 nM.
Under setting [4], `CC(C)(C)Oc1ccc(C(=O)n2nc(Nc3ccc(N4CCCC4)cc3)nc2N)cc1` [compound 291, 5-amino-1-(4-(tert-butoxy)phenyl)carbonyl-3-[4-(pyrrolidin-1-yl)phenylamino]-1H-1,2,4-triazole] had an IC50 of over 20000 nM.
`COc1cc(NC(=O)n2nc(Nc3ccc(OCCN4CCCC4)cc3)nc2N)cc(OC)c1` [compound 34, 5-amino-N-(3,5-(dimethoxy)phenyl)-3-[4-[2-(pyrrolidin-1-yl)ethoxy]phenylamino]-1H-1,2,4-triazole-1-carboxamide]: the IC50 under setting [6] is under 1000 nM.
Turning to `Nc1nc(Nc2ccc(OCCN3CCCC3)c(F)c2)nn1C(=O)c1ccc(N2CCOCC2)cc1` [compound 262, 5-amino-3-[4-[2-(pyrrolidin-1-yl)ethoxy]-3-fluorophenyl]amino-1-[4-(morpholin-4-yl)phenyl]carbonyl-1H-1,2,4-triazole], under setting [4], the IC50 was under 1000 nM.
On the same count and under the same terms, then `COc1c(F)cc(C(=O)n2nc(Nc3ccc(OCCN4CCCC4)cc3)nc2N)cc1F` [compound 390, 5-amino-1-(3,5-difluoro-4-methoxyphenyl)carbonyl-3-[4-[2-(pyrrolidin-1-yl)ethoxy]phenylamino]-1H-1,2,4-triazole], with under 1000 nM.
In the case of `CC(C)Oc1ccc(C(=O)n2nc(Nc3ccc4c(c3)OCCO4)nc2N)cc1` [compound 113, 5-amino-3-(1,4-benzodioxan-6-yl)amino-1-(4-(iso-propoxy)phenyl)carbonyl-1H-1,2,4-triazole], under setting [2], the IC50 fell in the range of 1000 to 10000 nM.
Under setting [1], `CC(=O)N(C)c1ccc(Nc2nc(N)nn2C(=O)Nc2ccc3c(c2)OCO3)cc1` [compound 176, 5-[4-(acetyl(methyl)amino)phenyl]amino-3-amino-N-(1,3-benzodioxol-5-yl)-1H-1,2,4-triazole-1-carboxamide] displayed an IC50 of over 20000 nM.
As for `CC(C)(C)Oc1cccc(C(=O)n2nc(Nc3ccc(OCCN4CCCC4)cc3)nc2N)c1` [compound #18, 5-Amino-3-[4-[2-(pyrrolidin-1-yl)ethoxy]phenylamino]-1-(3-(tert-butoxy)phenyl)carbonyl-1H-1,2,4-triazole], the IC50 under setting [4] is under 1000 nM.
Same read-out and setting: to `CC(C)Oc1ccc(C(=O)n2nc(Nc3ccc(OCCN(C)C)cc3)nc2N)cc1` [compound 85, 5-amino-3-[4-[2-(dimethylamino)ethoxy]phenylamino]-1-(4-(iso-propoxy)phenyl)carbonyl-1H-1,2,4-triazole] belongs under 1000 nM; to `CC(C)(C)Oc1ccc(C(=O)n2nc(Nc3ccc(OCCN4CCCC4)c(F)c3)nc2N)cc1` [compound 305, 5-amino-1-(4-(tert-butoxy)phenyl)carbonyl-3-[3-fluoro-4-[2-(pyrrolidin-1-yl)ethoxy]phenylamino]-1H-1,2,4-triazole], under 1000 nM.
`Nc1nc(Nc2ccc(OCCN3CCCC3=O)cc2)nn1C(=O)c1ccc(-c2csnn2)cc1` [compound 338, 5-amino-1-(4-(1,2,3-thiadiazol-4-yl)phenyl)carbonyl-3-[4-[2-(pyrrolidin-2-on-1-yl)ethoxy]phenylamino]-1H-1,2,4-triazole] came in with an IC50 under setting [4] of 1000 to 10000 nM.
As for `Nc1nc(Nc2ccc3c(c2)OCCO3)nn1C(=O)c1ccc(C(F)(F)F)cc1` [compound 244, 5-amino-3-(1,4-benzodioxan-6-yl)amino-1-[(4-trifluoromethyl)phenyl]carbonyl-1H-1,2,4-triazole], under setting [2], the IC50 was over 20000 nM.
Consider `CS(=O)(=O)N1CCC(Nc2nc(N)n(C(=O)c3ccc(N4CCOCC4)cc3)n2)CC1` [compound 399, 5-amino-1-(4-(morpholin-4-yl)phenyl)carbonyl-3-(1-methylsulfonylpiperidin-4-yl)amino-1H-1,2,4-triazole], for which the IC50 under setting [7] was over 20000 nM.
Under setting [5], `CC(C)(C)c1ccc(C(=O)n2nc(N)nc2Nc2ccc(OCCN3CCCC3)cc2)cc1` [compound 303, 3-amino-1-(4-(tert-butyl)phenyl)carbonyl-5-[4-[2-(pyrrolidin-1-yl)ethoxy]phenylamino]-1H-1,2,4-triazole] came in with an IC50 of 1000 to 10000 nM.
Turning to `Nc1nc(Nc2ccc(OCCN3CCCC3)cc2)nn1C(=O)c1cccs1` [compound 285, 5-amino-1-(thien-2-yl)carbonyl-3-[4-[2-(pyrrolidin-1-yl)ethoxy]phenylamino]-1H-1,2,4-triazole], under setting [3], the IC50 was under 1000 nM.
Under setting [4], `CC(C)(C)Oc1ccc(C(=O)n2nc(Nc3cccc(-c4cnco4)c3)nc2N)cc1` [compound 264, 5-amino-1-(4-(tert-butoxy)phenyl)carbonyl-3-[3-(1,3-oxazol-5-yl)phenylamino]-1H-1,2,4-triazole] gave an IC50 of 1000 to 10000 nM.
Under setting [7], `Cc1cccc(C(=O)n2nc(Nc3ccc4cn[nH]c4c3)nc2N)c1` [compound 160, 5-amino-3-(indazol-6-yl)amino-1-(3-(methyl)phenyl)carbonyl-1H-1,2,4-triazole] came in with a concentration for half-maximal inhibition (IC50) of 1000 to 10000 nM.
Regarding `Cc1cccc(C(=O)n2nc(Nc3cccc(OCC(=O)NCC4COC(C)(C)O4)c3)nc2N)c1` (stereo not drawn) [compound 148], the IC50 under setting [2] lay within 1000 to 10000 nM.
For `COc1ccc(C(=O)n2nc(Nc3ccc4c(c3)OCCO4)nc2N)cc1` [compound 102, 5-amino-3-(1,4-benzodioxan-6-yl)amino-1-(4-(methyloxy)phenyl)carbonyl-1H-1,2,4-triazole], the IC50 under setting [2] is 1000 to 10000 nM.
Under setting [6], `Cc1ccc(NC(=O)n2nc(Nc3ccc(OCCN4CCCCC4)cc3)nc2N)cc1` [compound 39, 5-amino-N-(4-methylphenyl)-3-[4-[2-(piperidin-1-yl)ethoxy]phenylamino]-1H-1,2,4-triazole-1-carboxamide] gave an IC50 of 1000 to 10000 nM.
Under setting [3], `CC(=O)n1nc(Nc2ccc3c(c2)OCCO3)nc1N` [compound 261, 1-Acetyl-5-amino-3-(1,4-benzodioxan-6-yl)amino-1H-1,2,4-triazole] yielded an IC50 of over 20000 nM.
In the case of `Nc1nc(Nc2ccc3c(c2)OCCO3)nn1C(=O)c1cccc(OCCC2OCCO2)c1` [compound 210], the concentration for half-maximal inhibition (IC50) under setting [2] fell in the range of 1000 to 10000 nM.
